How the values were obtained:
Type in all cases: biochemical
[1] = test system: α-isomaltosyl-transferring enzyme from Bacillus globisporus C9; assay: Influence of metal ions on enzyme activity; conditions: enzyme of Strain C9; for Relative activity: 1 mM metal ion
Description: (§1) The activity of the enzyme was assayed by dissolving panose in 100 mM acetate buffer (pH 6.0) to give a concentration of two percent (w/v) for a substrate solution, adding a 0.5 ml of an enzyme solution to a 0.5 ml of the substrate solution, enzymatically reacting the mixture solution at 35° C. for 30 min, suspending the reaction mixture by boiling for 10 min, and quantifying glucose by the glucose oxidation method. One unit activity of the α-isomaltosyl-transferring enzyme is defined as the enzyme amount that forms one micromole of glucose per minute under the above enzymatic reaction conditions. Throughout the specification, the enzymatic activity of the α-isomaltosyl-transferring enzyme means the unit(s) assayed as above.
The influence of metal ions on the activity of α-isomaltosyl-transferring enzyme was examined in the presence of 1 mM of each metal-ion according to the assay for the enzyme activity.

[2] = test system: α-isomaltosyl-transferring enzyme from Arthrobacter ramosus S1; assay: Influence of metal ions on enzyme activity; conditions: enzyme of Strain S1; for Relative activity: 1 mM metal ion
Description: as §1
(§2) The influence of metal ions on the activity of α-isomaltosyl-transferring enzyme was examined in the presence of 1 mM of a metal ion according to the assay for the enzyme activity.

[3] = test system: α-isomaltosyl-transferring enzyme from Bacillus globisporus C11; assay: Influence of metal ions on enzyme activity; conditions: enzyme of Strain C11; for Relative activity: 1 mM metal ion
Description: as §1, §2

[4] = test system: α-isomaltosyl-transferring enzyme from Bacillus globisporus N75; conditions: enzyme of Strain N75; for Relative activity: 1 mM metal ion
Description: as §1, §2

[5] = test system: α-isomaltosyl-transferring enzyme from Arthrobacter globiformis A19; assay: Action on saccharides (substrates, TLC); design: key: −: there was found no substrate change before and after the enzymatic reaction; +: there were found both the reduction of substrate and the formation of cyclotetrasaccharide after the enzymatic reaction; conditions: partially purified enzyme, 2 units/g substrate, 2% (w/v) substrate, 30° C., pH 6.0, 24 hours
Procedure, shortened: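 Each candidate saccharide, from malto- and isomalto-oligosaccharides to cyclodextrins, starch, pullulan and dextran, was prepared at 2% (w/v). Two units/g substrate of enzyme were added, then the mixture was held at pH 6.0, 30° C., 24 hours. Samples were then analysed by silica gel TLC.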

[6] = test system: α-isomaltosyl-transferring enzyme from Arthrobacter ramosus S1; assay: Action on saccharides (substrates, TLC); design: key: −: there was found no substrate change before and after the enzymatic reaction; +: there were found both the reduction of substrate and the formation of cyclotetrasaccharide after the enzymatic reaction; conditions: 2 units/g substrate, 2% (w/v) substrate, 30° C., pH 6.0, 24 hours
Procedure, shortened: (§3)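 Substrates 2% (w/v), enzyme 2 units/g substrate, pH 6.0, 30° C., 24 h. Read-out: silica TLC, n-butanol:pyridine:water 6:4:1; sulfuric acid-methanol (total sugar) and diphenylamine-aniline (reducing sugar) staining, pre- vs post-reaction.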

[7] = test system: α-isomaltosyl-transferring enzyme from Bacillus globisporus C11; assay: Action on saccharides (substrates, TLC); design: key: −: there was found no substrate change before and after the enzymatic reaction; +: there were found both the reduction of substrate and the formation of cyclotetrasaccharide after the enzymatic reaction; conditions: 2 units/g substrate, 2% (w/v) substrate, 30° C., pH 6.0, 24 hours
Procedure, shortened: as §3

[8] = test system: α-isomaltosyl-transferring enzyme from Bacillus globisporus C9; assay: Action on saccharides (substrates, TLC); design: key: −: there was found no substrate change before and after the enzymatic reaction; +: there were found both the reduction of substrate and the formation of cyclotetrasaccharide after the enzymatic reaction; conditions: 2 units/g substrate, 2% (w/v) substrate, 30° C., pH 6.0, 24 hours
Procedure, shortened: as §3

[9] = test system: α-isomaltosyl-transferring enzyme from Bacillus globisporus N75; assay: Action on saccharides (substrates, TLC); design: key: −: there was found no substrate change before and after the enzymatic reaction; +: there were found both the reduction of substrate and the formation of cyclotetrasaccharide after the enzymatic reaction; conditions: 2 units/g substrate, 2% (w/v) substrate, 30° C., pH 6.0, 24 hours
Procedure, shortened: as §3

[10] = test system: α-isomaltosyl-transferring enzyme from Arthrobacter globiformis A19; assay: Specificity to transferring acceptor; design: key: −: no saccharide transferred product was formed; ±: a saccharide-transferred product formed in an amount of less than one percent to the total sugars; +: a saccharide-transferred product was formed in an amount of over one percent but below 10% to the total sugars; ++: a saccharide-transferred product was formed in an amount of over 10% to the total sugars; conditions: partially purified enzyme, panose as saccharide donor, 10 units/g substrate, 3.2% (w/v), 30° C., pH 6.0, 24 hours
Procedure, shortened: (§4)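 Candidate acceptor saccharides mixed with panose donor at equal concentration, 10 units/g substrate enzyme, total saccharide 3.2% (w/v), reacted 24 h at 30 °C, pH 6.0. Transfer product formation scored positive/negative by GLC (mono-/disaccharides) or HPLC (tri- and higher).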

[11] = test system: α-isomaltosyl-transferring enzyme from Arthrobacter ramosus S1; assay: Specificity to transferring acceptor; design: key: −: no saccharide transferred product was formed; ±: a saccharide-transferred product formed in an amount of less than one percent to the total sugars; +: a saccharide-transferred product was formed in an amount of over one percent but below 10% to the total sugars; ++: a saccharide-transferred product was formed in an amount of over 10% to the total sugars; conditions: panose as saccharide donor, 10 units/g substrate, 3.2% (w/v), 30° C., pH 6.0, 24 hours
Procedure, shortened: as §4

[12] = test system: α-isomaltosyl-transferring enzyme from Bacillus globisporus C11; assay: Specificity to transferring acceptor; design: key: −: no saccharide transferred product was formed; ±: a saccharide-transferred product formed in an amount of less than one percent to the total sugars; +: a saccharide-transferred product was formed in an amount of over one percent but below 10% to the total sugars; ++: a saccharide-transferred product was formed in an amount of over 10% to the total sugars; conditions: panose as saccharide donor, 10 units/g substrate, 3.2% (w/v), 30° C., pH 6.0, 24 hours
Procedure, shortened: as §4

[13] = test system: α-isomaltosyl-transferring enzyme from Bacillus globisporus C9; assay: Specificity to transferring acceptor; design: key: −: no saccharide transferred product was formed; ±: a saccharide-transferred product formed in an amount of less than one percent to the total sugars; +: a saccharide-transferred product was formed in an amount of over one percent but below 10% to the total sugars; ++: a saccharide-transferred product was formed in an amount of over 10% to the total sugars; conditions: panose as saccharide donor, 10 units/g substrate, 3.2% (w/v), 30° C., pH 6.0, 24 hours
Procedure, shortened: as §4

[14] = test system: α-isomaltosyl-transferring enzyme from Bacillus globisporus N75; assay: Specificity to transferring acceptor; design: key: −: no saccharide transferred product was formed; ±: a saccharide-transferred product formed in an amount of less than one percent to the total sugars; +: a saccharide-transferred product was formed in an amount of over one percent but below 10% to the total sugars; ++: a saccharide-transferred product was formed in an amount of over 10% to the total sugars; conditions: panose as saccharide donor, 10 units/g substrate, 3.2% (w/v), 30° C., pH 6.0, 24 hours
Procedure, shortened: as §4

Molecule | Relative activity [1] [%] | Relative activity [2] [%] | Relative activity [3] [%] | Relative activity [4] [%] | Enzymatic action for forming cyclotetrasaccharide, Enzyme of Strain A19 [5] | Enzymatic action for forming cyclotetrasaccharide, Enzyme of Strain S1 [6] | Enzymatic action for forming cyclotetrasaccharide, Enzyme of Strain C11 [7] | Enzymatic action for forming cyclotetrasaccharide, Enzyme of Strain C9 [8] | Enzymatic action for forming cyclotetrasaccharide, Enzyme of Strain N75 [9] | Product of transferring reaction, Enzyme of Stain A19 [10] | Product of transferring reaction, Enzyme of Strain S1 [11] | Product of transferring reaction, Enzyme of Strain C11 [12] | Product of transferring reaction, Enzyme of Strain C9 [13] | Product of transferring reaction, Enzyme of Strain N75 [14] | also measured
[Pb+2] [Pb^2+] | 89 | 85 | 74 | 69 |  |  |  |  |  |  |  |  |  |  | 
[Cu+2] [Cu^2+] | 57 | 2 | 56 | 15 |  |  |  |  |  |  |  |  |  |  | Effect on enzyme activity ([1]; 1 mM): also inhibited; Effect on enzyme activity ([2]; 1 mM): also inhibited; Effect on enzyme activity ([3]; 1 mM): also inhibited; Effect on enzyme activity ([4]; 1 mM): also inhibited
[Mn+2] [Mn^2+] | 106 |  | 93 | 101 |  |  |  |  |  |  |  |  |  |  | 
[Fe+2] [Fe^2+] | 96 | 105 |  |  |  |  |  |  |  |  |  |  |  |  | Relative activity ([1]; listed as Fe^3+): 105%; Relative activity ([2]; listed as Fe^3+): 75%
[Mg+2] [Mg^2+] |  | 99 | 91 | 95 |  |  |  |  |  |  |  |  |  |  | 
OC[C@H]1O[C@@H]2O[C@H]3[C@H](O)[C@@H](O)[C@@H](O[C@H]4[C@H](O)[C@@H](O)[C@@H](O[C@H]5[C@H](O)[C@@H](O)[C@@H](O[C@H]6[C@H](O)[C@@H](O)[C@@H](O[C@H]7[C@H](O)[C@@H](O)[C@@H](O[C@H]8[C@H](O)[C@@H](O)[C@@H](O[C@H]1[C@H](O)[C@H]2O)O[C@@H]8CO)O[C@@H]7CO)O[C@@H]6CO)O[C@@H]5CO)O[C@@H]4CO)O[C@@H]3CO [β-Cyclodextrin, β-cyclodextrin] |  |  |  |  | − | − | − | − | − | − | − | − | − | − | 
OC[C@H]1O[C@H](O[C@H]2[C@H](O)[C@@H](CO)OC(O)[C@@H]2O)[C@H](O)[C@@H](O)[C@@H]1O (some centres unmarked) [Nigerose, nigerose] |  |  |  |  | − | − | − | − | − | + (a saccharide-transferred product was formed in an amount of over one percent but below 10% to the total sugars) | + (a saccharide-transferred product was formed in an amount of over one percent but below 10% to the total sugars) | + (a saccharide-transferred product was formed in an amount of over one percent but below 10% to the total sugars) | + (a saccharide-transferred product was formed in an amount of over one percent but below 10% to the total sugars) | + (a saccharide-transferred product was formed in an amount of over one percent but below 10% to the total sugars) | 
maltotriose |  |  |  |  | − | − | − | − | − | + (a saccharide-transferred product was formed in an amount of over one percent but below 10% to the total sugars) | ++ (a saccharide-transferred product was formed in an amount of over 10% to the total sugars) | + (a saccharide-transferred product was formed in an amount of over one percent but below 10% to the total sugars) | + (a saccharide-transferred product was formed in an amount of over one percent but below 10% to the total sugars) | + (a saccharide-transferred product was formed in an amount of over one percent but below 10% to the total sugars) | 
OC[C@H]1O[C@H](O[C@H]2C(O)O[C@H](CO)[C@@H](O)[C@@H]2O)[C@H](O)[C@@H](O)[C@@H]1O (some centres unmarked) [Kojibiose, kojibiose] |  |  |  |  | − | − | − | − | − | + (a saccharide-transferred product was formed in an amount of over one percent but below 10% to the total sugars) | + (a saccharide-transferred product was formed in an amount of over one percent but below 10% to the total sugars) | + (a saccharide-transferred product was formed in an amount of over one percent but below 10% to the total sugars) | + (a saccharide-transferred product was formed in an amount of over one percent but below 10% to the total sugars) | + (a saccharide-transferred product was formed in an amount of over one percent but below 10% to the total sugars) | 

— patent US7192746B2, “α-Isomaltosyltransferase, process for producing the same and use thereof” (Kabushiki Kaisha Hayashibara Seibutsu Kagaku Kenkyujo, priority 2000, dated 2007)
